Assay results from ChEMBL document CHEMBL6114971, “Design, synthesis and biological evaluation of benzo[b]thiophene analogues as novel ferroptosis inhibitor that inhibit fibrosarcoma cell proliferation” (Bioorg Med Chem, 2025).

Experiments:
A549 = assay: Antiproliferative activity against human A549 cells measured after 72 hrs by MTT assay; assay type: functional, cell-based; details: A549, 72 h
4T1 = assay: Antiproliferative activity against mouse 4T1 cells measured after 72 hrs by MTT assay; assay type: functional, cell-based; details: 4T1, 72 h
HT-1080 [1] = assay: Antiproliferative activity against human HT-1080 cells measured after 72 hrs by MTT assay; assay type: functional, cell-based; details: HT-1080, 72 h
MGC-803 = assay: Antiproliferative activity against human MGC-803 cells measured after 72 hrs by MTT assay; assay type: functional, cell-based; details: MGC-803, 72 h
HT-1080 [2] = assay: Antiproliferative activity against human HT-1080 cells measured after 72 hrs in presence of ferroptosis inhibitor Fer-1 by MTT assay; assay type: functional, cell-based; details: HT-1080, 72 h
[3] = Selectivity ratio of IC50 for antiproliferative activity against human HT-1080 cells in presence of ferroptosis inhibitor Fer-1 to IC50 for antiproliferative activity against human HT-1080 cells; assay type: functional
[4] = Cytotoxicity against human GES1 cells measured after 72 hrs by MTT assay; assay type: toxicity, cell-based
[5] = Cytotoxicity against HUVEC measured after 72 hrs by MTT assay; assay type: toxicity, cell-based; details: human
[6] = Selectivity index, ratio of IC50 for human GES1 cells to IC50 for human HT-1080; assay type: toxicity; details: GES1 cells versus HT-1080 cells, read-out: Ratio IC50
[7] = Selectivity index, ratio of IC50 for HUVEC to IC50 for human HT-1080; assay type: toxicity; details: HUVEC versus HT-1080 cells, read-out: Ratio IC50
[8] = target: T1, Phospholipid hydroperoxide glutathione peroxidase GPX4 (Homo sapiens) (UniProt P36969); assay: Inhibition of GPX4 activity in human HT-1080 cells assessed as down regulation of GPX4 level at 2 uM measured after 24 hrs by Western blotting analysis; assay type: cell-based
T1 sequence (whole entry): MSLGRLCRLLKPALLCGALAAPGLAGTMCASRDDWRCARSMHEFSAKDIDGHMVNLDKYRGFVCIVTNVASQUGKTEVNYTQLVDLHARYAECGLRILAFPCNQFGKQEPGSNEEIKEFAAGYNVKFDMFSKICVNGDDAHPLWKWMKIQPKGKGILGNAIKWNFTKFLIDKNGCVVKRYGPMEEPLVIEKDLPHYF

[9] = target: T1, Phospholipid hydroperoxide glutathione peroxidase GPX4 (Homo sapiens); assay: Inhibition of GPX4 activity in human HT-1080 cells assessed as down regulation of GPX4 level measured after 24 hrs by Western blotting analysis; assay type: cell-based; details: dose 0.25-4 µM
HT-1080 [10] = assay: Reduction in GPX4 mRNA level in human HT-1080 cells measured after 24 hrs by qRT-PCR analysis; assay type: functional, cell-based; details: dose 0.5-4 µM
HT-1080 [11] = assay: Induction of ferroptosis in human HT-1080 cells assessed as increase in intracellular Fe2+ level measured after 24 hrs; assay type: functional, cell-based; details: dose 0.5-4 µM
HT-1080 [12] = assay: Induction of ROS generation in human HT-1080 cells assessed as intracellular ROS level at 0.5 uM measured after 24 hrs by DCFH-DA probe based flow cytometry (reference value: 33%); assay type: functional
HT-1080 [13] = assay: Induction of ROS generation in human HT-1080 cells assessed as intracellular ROS level at 1 uM measured after 24 hrs by DCFH-DA probe based flow cytometry (reference value: 33%); assay type: functional
HT-1080 [14] = assay: Induction of ROS generation in human HT-1080 cells assessed as intracellular ROS level at 2 uM measured after 24 hrs by DCFH-DA probe based flow cytometry (reference value: 33%); assay type: functional
HT-1080 [15] = assay: Induction of ROS generation in human HT-1080 cells assessed as intracellular ROS level at 2 uM measured after 24 hrs in presence of ferroptosis inhibitor Fer-1 by DCFH-DA probe based flow cytometry (reference value: 33%); assay type: functional
HT-1080 [16] = assay: Induction of ROS generation in human HT-1080 cells assessed as increase in intracellular ROS level measured after 24 hrs by DCFH-DA probe based flow cytometry; assay type: functional, cell-based; details: dose 0.5-2 µM
HT-1080 [17] = assay: Induction of ferroptosis in human HT-1080 cells assessed as reduction in GSH level measured after 24 hrs; assay type: functional, cell-based; details: dose 0.5-4 µM
HT-1080 [18] = assay: Induction of ferroptosis in human HT-1080 cells assessed as increase in MDA level measured after 24 hrs; assay type: functional, cell-based; details: dose 0.5-4 µM
HT-1080 [19] = assay: Cell cycle arrest in human HT-1080 cells assessed as accumulation of cells at G1-phase at 0.5 uM measured after 24 hrs by propidium iodide staining based flow cytometry (reference value: 51.3%); assay type: functional
HT-1080 [20] = assay: Cell cycle arrest in human HT-1080 cells assessed as accumulation of cells at S-phase at 0.5 uM measured after 24 hrs by propidium iodide staining based flow cytometry (reference value: 21.1%); assay type: functional
HT-1080 [21] = assay: Cell cycle arrest in human HT-1080 cells assessed as accumulation of cells at G2/M-phase at 0.5 uM measured after 24 hrs by propidium iodide staining based flow cytometry (reference value: 27%); assay type: functional
HT-1080 [22] = assay: Cell cycle arrest in human HT-1080 cells assessed as accumulation of cells at G1-phase at 1 uM measured after 24 hrs by propidium iodide staining based flow cytometry (reference value: 51.3%); assay type: functional
HT-1080 [23] = assay: Cell cycle arrest in human HT-1080 cells assessed as accumulation of cells at S-phase at 1 uM measured after 24 hrs by propidium iodide staining based flow cytometry (reference value: 21.1%); assay type: functional
HT-1080 [24] = assay: Cell cycle arrest in human HT-1080 cells assessed as accumulation of cells at G2/M-phase at 1 uM measured after 24 hrs by propidium iodide staining based flow cytometry (reference value: 27%); assay type: functional
HT-1080 [25] = assay: Cell cycle arrest in human HT-1080 cells assessed as accumulation of cells at G1-phase at 2 uM measured after 24 hrs by propidium iodide staining based flow cytometry (reference value: 51.3%); assay type: functional
HT-1080 [26] = assay: Cell cycle arrest in human HT-1080 cells assessed as accumulation of cells at S-phase at 2 uM measured after 24 hrs by propidium iodide staining based flow cytometry (reference value: 21.1%); assay type: functional
HT-1080 [27] = assay: Cell cycle arrest in human HT-1080 cells assessed as accumulation of cells at G2/M-phase at 2 uM measured after 24 hrs by propidium iodide staining based flow cytometry (reference value: 27%); assay type: functional

## COc1cc(N(Cc2csc3ccccc23)C(=O)CCl)cc(OC)c1OC
A549
  IC50: 17.2 µM
4T1
  IC50: 16.1 µM
HT-1080 [1]
  IC50: 0.94 µM
MGC-803
  IC50: 4.48 µM
HT-1080 [2]
  IC50: 3.03 µM
[3]
  Ratio IC50: 3.21
[4]
  IC50 at 72 h: 103 µM
[5]
  IC50 at 72 h: 26.1 µM
[6]
  selectivity ratio: 109
[7]
  selectivity ratio: 27.7
[8]
  inhibition: Active; Significant Down Regulation Observed
[9]
  inhibition: Dose-dependent-effect
HT-1080 [10]
  Activity: Dose-dependent-effect
HT-1080 [11]
  Activity: Dose-dependent-effect
HT-1080 [12]
  Activity: 33%
HT-1080 [13]
  Activity: 64.2%
HT-1080 [14]
  Activity: 88.5%
HT-1080 [15]
  Activity: 31.2%
HT-1080 [16]
  Activity: Dose-dependent-effect
HT-1080 [17]
  Activity: Dose-dependent-effect
HT-1080 [18]
  Activity: Dose-dependent-effect
HT-1080 [19]
  Activity: 48%
HT-1080 [20]
  Activity: 28.5%
HT-1080 [21]
  Activity: 23.1%
HT-1080 [22]
  Activity: 38.8%
HT-1080 [23]
  Activity: 37%
HT-1080 [24]
  Activity: 23.8%
HT-1080 [25]
  Activity: 35.5%
HT-1080 [26]
  Activity: 40.7%
HT-1080 [27]
  Activity: 23.9%
